In PubChem BioAssay AID2060620 (Molecular Pharmacology Branch, DTP, NCI, 2025) one finds viability, T/C and IC50 data, which are given here for 7 molecules.

Where “and” joins values, the source holds several entries; their conditions need not be identical. Equal entries are not always repeated.

For this experiment, the system named is 328373-195-R-J1-PDC complex spheroids, viability % test/control. Description: Anticancer human tumor 328373-195-R-J1-PDC patient-derived head and neck squamous carcinoma cell line growth inhibition [CLK]. The note with it: for viability, T/C: stronger effect = lower value. A digest of the protocol:
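Multi-cell-type spheroids combined patient-derived tumor cells with HUVEC endothelial cells and human mesenchymal stem cells. Paired agents were dosed in half-log steps down from about clinical Cmax, or from 10 microM where Cmax was unknown.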

The mark [1] stands for this setting: curve of first compound, second compound 0.0316 µM.
[2] abbreviates: curve of first compound, second compound 0.1 µM.
Where [3] appears, read: curve of first compound, second compound 0.316 µM.
Setting [4] is: curve of first compound, second compound 1 µM.
Where [5] appears, read: curve of first compound, second compound 3.16 µM.
[6] abbreviates: curve of first compound, second compound 10 µM.
The mark [7] stands for this setting: second compound 0.0316 µM, first compound 0.0316 µM.
[8] abbreviates: second compound 0.0316 µM, first compound 0.1 µM.
[9] abbreviates: second compound 0.0316 µM, first compound 0.316 µM.
The mark [10] stands for this setting: second compound 0.0316 µM, first compound 1 µM.
[11] abbreviates: second compound 0.1 µM, first compound 0.0316 µM.
The mark [12] stands for this setting: second compound 0.1 µM, first compound 0.1 µM.
Setting [13] is: second compound 0.1 µM, first compound 0.316 µM.
The mark [14] stands for this setting: second compound 0.1 µM, first compound 1 µM.
The mark [15] stands for this setting: second compound 0.316 µM, first compound 0.0316 µM.
Setting [16] is: second compound 0.316 µM, first compound 0.1 µM.
[17] abbreviates: second compound 0.316 µM, first compound 0.316 µM.
Setting [18] is: second compound 0.316 µM, first compound 1 µM.
Setting [19] is: second compound 1 µM, first compound 0.0316 µM.
The mark [20] stands for this setting: second compound 1 µM, first compound 0.1 µM.
Where [21] appears, read: second compound 1 µM, first compound 0.316 µM.
Where [22] appears, read: second compound 1 µM, first compound 1 µM.
Where [23] appears, read: second compound 3.16 µM, first compound 0.0316 µM.
Setting [24] is: second compound 3.16 µM, first compound 0.1 µM.
Setting [25] is: second compound 3.16 µM, first compound 0.316 µM.
The mark [26] stands for this setting: second compound 3.16 µM, first compound 1 µM.
[27] abbreviates: second compound 10 µM, first compound 0.0316 µM.
Where [28] appears, read: second compound 10 µM, first compound 0.1 µM.
The mark [29] stands for this setting: second compound 10 µM, first compound 0.316 µM.
Where [30] appears, read: second compound 10 µM, first compound 1 µM.
Where [31] appears, read: second compound 0.0316 µM, first compound 3.16 µM.
Where [32] appears, read: second compound 0.0316 µM, first compound 10 µM.
Where [33] appears, read: second compound 0.1 µM, first compound 3.16 µM.
The mark [34] stands for this setting: second compound 0.1 µM, first compound 10 µM.
Setting [35] is: second compound 0.316 µM, first compound 3.16 µM.
Setting [36] is: second compound 0.316 µM, first compound 10 µM.
The mark [37] stands for this setting: second compound 1 µM, first compound 3.16 µM.
Setting [38] is: second compound 1 µM, first compound 10 µM.
[39] abbreviates: second compound 3.16 µM, first compound 3.16 µM.
Where [40] appears, read: second compound 3.16 µM, first compound 10 µM.
[41] abbreviates: second compound 10 µM, first compound 3.16 µM.
Setting [42] is: second compound 10 µM, first compound 10 µM.
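Also: spheroids exposed to the agents for 7 days.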

As to `CCCS(=O)(=O)Nc1ccc(F)c(C(=O)c2c[nH]c3ncc(-c4ccc(Cl)cc4)cc23)c1F`, the viability, T/C (in general, the result in the treated group divided by that in the control group, in per cent) by setting is: (compound 0.0316 µM) 99.5% and 99.4%; (compound 0.1 µM) 91.2% and 92.6%; (compound 0.316 µM) 92.8% and 95.1%; (compound 1 µM) 91.2% and 83.6%; (compound 3.16 µM) 92.6% and 94.8%; (compound 10 µM) 82.3% and 109%. Moreover, the 50% inhibitory concentration (IC50) (as a rule, the concentration that inhibits the measured activity by half) (curve of compound) is > 10000 nM.

Take `CC(=O)O[C@H]1C(=O)[C@@]2(C)[C@H]([C@H](OC(=O)c3ccccc3)[C@]3(O)C[C@H](OC(=O)[C@H](O)[C@@H](NC(=O)c4ccccc4)c4ccccc4)C(C)=C1C3(C)C)[C@]1(OC(C)=O)CO[C@@H]1C[C@@H]2O`: the viability, T/C is 10.2% and 4.45% (compound 0.0316 µM); 5.56% and 4.34% (compound 0.1 µM); 5.87% and 5.98% (compound 0.316 µM); 10.8% and 8.33% (compound 1 µM); 14.6% and 9.57% (compound 3.16 µM); 14.7% and 10.1% (compound 10 µM). Moreover, the IC50 (curve of compound) is < 31.6 nM.

On to `COc1c(OCCCN2CCOCC2)ccc2c3n(c(=NC(=O)c4cnc(N)nc4)nc12)CCN3` + CNC(=O)c1ccc(Nc2nc(OC3CCCC3)c3c(-c4ccc5nc(C)oc5c4)c[nH]c3n2)c(OC)c1, for which the IC50 is 141 nM under setting [1]; < 3.16 nM under setting [2]; < 3.16 nM under setting [3]; < 3.16 nM under setting [4]; < 3.16 nM under setting [5]; < 3.16 nM under setting [6]. Moreover, the viability, T/C reads like this: (second compound 0.0316 µM, first compound 0.00316 µM) 68.3%; (second compound 0.0316 µM, first compound 0.01 µM) 67.3%; under setting [7], 68.2%; under setting [8], 60.7%; under setting [9], 24.9%; under setting [10], 8.91%. For the same molecule, the viability, T/C runs as follows: (second compound 0.1 µM, first compound 0.00316 µM) 10.9%; (second compound 0.1 µM, first compound 0.01 µM) 12.2%; under setting [11], 11.8%; under setting [12], 12.3%; under setting [13], 7.7%; under setting [14], 6.41%. The viability, T/C (second compound 0.316 µM, first compound 0.00316 µM) was 10.6%; the viability, T/C (second compound 0.316 µM, first compound 0.01 µM) is 11.2%; the viability, T/C under setting [15] is 10%; the viability, T/C under setting [16] is 9.38%; the viability, T/C under setting [17] is 6.22%; the viability, T/C under setting [18] is 5.91%. Moreover, the viability, T/C reads like this: (second compound 1 µM, first compound 0.00316 µM) 9.61%; (second compound 1 µM, first compound 0.01 µM) 10.8%; under setting [19], 10.5%; under setting [20], 9.83%; under setting [21], 7.75%; under setting [22], 4.65%. The viability, T/C reads like this: (second compound 3.16 µM, first compound 0.00316 µM) 9.58%; (second compound 3.16 µM, first compound 0.01 µM) 11.5%; under setting [23], 10.6%; under setting [24], 9.71%; under setting [25], 8.29%; under setting [26], 7.29%. Further, the viability, T/C was 12.8% (second compound 10 µM, first compound 0.00316 µM); 11% (second compound 10 µM, first compound 0.01 µM); 13.6% under setting [27]; 11.9% under setting [28]; 8.72% under setting [29]; 5.52% under setting [30].

Turning to `Nc1ccn(C2OC(CO)C(O)C2(F)F)c(=O)n1` (centres undefined) + CNC(=O)c1ccc(Nc2nc(OC3CCCC3)c3c(-c4ccc5nc(C)oc5c4)c[nH]c3n2)c(OC)c1, the IC50 runs as follows: under setting [1], < 31.6 nM; under setting [2], < 31.6 nM; under setting [3], < 31.6 nM; under setting [4], < 31.6 nM; under setting [5], < 31.6 nM; under setting [6], < 31.6 nM. The viability, T/C was 2.44% under setting [7]; 1.85% under setting [8]; 3.64% under setting [9]; 2.74% under setting [10]; 2.63% under setting [31]; 1.95% under setting [32]. Also, the viability, T/C by setting is: under setting [11], 3.4%; under setting [12], 1.85%; under setting [13], 2.02%; under setting [14], 2.08%; under setting [33], 2.83%; under setting [34], 4.18%. For the same molecule, the viability, T/C was 3.23% under setting [15]; 2.68% under setting [16]; 4.06% under setting [17]; 2.46% under setting [18]; 2.95% under setting [35]; 1.84% under setting [36]. Also, the viability, T/C is 4.36% under setting [19]; 1.86% under setting [20]; 1.79% under setting [21]; 2.35% under setting [22]; 3.18% under setting [37]; 3.19% under setting [38]. Moreover, the viability, T/C runs as follows: under setting [23], 5.21%; under setting [24], 3.42%; under setting [25], 4.01%; under setting [26], 2.03%; under setting [39], 2.01%; under setting [40], 1.88%. Further, the viability, T/C reads like this: under setting [27], 6.95%; under setting [28], 3.09%; under setting [29], 3.18%; under setting [30], 2.49%; under setting [41], 2.14%; under setting [42], 1.82%.

On to `CC(CO)NC(=O)c1cc(-c2ccc(Cl)cc2)nn(-c2cnn(C)c2)c1=O` (centres undefined) + CN1CCN(c2cc(C(=O)Nc3cc4cc(-c5cnn(C)c5)ccc4cn3)ccn2)CC1, for which the half-maximal inhibitory concentration (IC50) is, setting by setting: under setting [1], > 10000 nM; under setting [2], > 10000 nM; under setting [3], < 31.6 nM; under setting [4], < 31.6 nM; under setting [5], < 31.6 nM; under setting [6], < 31.6 nM. For the same molecule, the viability, T/C is, setting by setting: under setting [7], 108%; under setting [8], 99.5%; under setting [9], 114%; under setting [10], 106%; under setting [31], 105%; under setting [32], 97.6%. In addition, the viability, T/C is 86.1% under setting [11]; 92.1% under setting [12]; 94.7% under setting [13]; 98% under setting [14]; 92.6% under setting [33]; 82.6% under setting [34]. Besides, the viability, T/C was 32.2% under setting [15]; 39% under setting [16]; 35.2% under setting [17]; 39.5% under setting [18]; 38% under setting [35]; 33.9% under setting [36]. In addition, the viability, T/C was 0.23% under setting [19]; 0.27% under setting [20]; 1.91% under setting [21]; 1.81% under setting [22]; 1.3% under setting [37]; 2.16% under setting [38]. For the same molecule, the viability, T/C was 2.73% under setting [23]; 1.98% under setting [24]; 1.71% under setting [25]; 0.57% under setting [26]; 3.9% under setting [39]; 2.11% under setting [40]. Further, the viability, T/C by setting is: under setting [27], 0.74%; under setting [28], 0.62%; under setting [29], 0.43%; under setting [30], 1%; under setting [41], 0.24%; under setting [42], 3.1%.

Regarding `CN1CCN(c2cc(C(=O)Nc3cc4cc(-c5cnn(C)c5)ccc4cn3)ccn2)CC1`, the viability, T/C is 102% [middle of 12 runs] (compound 0.0316 µM); 87.1% [middle of 12 runs] (compound 0.1 µM); 30.6% [middle of 12 runs] (compound 0.316 µM); 2.6% [middle of 12 runs] (compound 1 µM); 1.02% [middle of 12 runs] (compound 3.16 µM); 0.18% [middle of 11 runs] (compound 10 µM). For the setting “compound alone, run of 08/14/2023”, the half-maximal inhibitory concentration (IC50) was 209 nM [middle of 12 runs].

Take `CC1COCCN1c1cc(C2(S(C)(=N)=O)CC2)nc(-c2ccnc3[nH]ccc23)n1` (centres undefined): the viability, T/C was 99.7% and 95.9% (compound 0.0316 µM); 91.5% and 81.3% (compound 0.1 µM); 88.8% and 91.9% (compound 0.316 µM); 70.2% and 70% (compound 1 µM); 29.4% and 27.2% (compound 3.16 µM); 9.11% and 6.62% (compound 10 µM). The IC50 (curve of compound) is 1760 nM and 1730 nM.
